Measurements reported in ChEMBL document CHEMBL3351661, “Structure-activity relationship studies of antiplasmodial aminomethylthiazoles” (Bioorg Med Chem Lett, 2014).
≈ marks a conversion by molar mass, not a printed value.

Key:
[1] = Aqueous kinetic solubility at pH 7.4 by turbidimetric assay; format: physicochemical; details: read-out: Kinetic_solubility
Plasmodium falciparum = experiment: microbe, parasite or virus in culture; details: NF54
Description: Antiplasmodial activity against chloroquine-sensitive Plasmodium falciparum NF54 asexual erythrocyte stages by parasite lactate dehydrogenase assay

Compound | solubility kinetic [1] | IC50 (Plasmodium falciparum)
NCc1csc(NC(=O)c2cscn2)n1 | 80 µg/mL (≈ 333 µM) | 149 µM
CC(C)(C)c1cc(C(=O)Nc2ccc(CN)c3ccccc23)n(Cc2ccccc2)n1 |  | 7.59 µM
NCc1csc(NC(=O)c2ccc(F)cc2)n1 | 80 µg/mL (≈ 318 µM) | 123 µM
CC(C)(C)c1cc(C(=O)Nc2ncc(CN)s2)n(Cc2ccccc2)n1 | 80 µg/mL (≈ 217 µM) | 9.09 µM
NCc1csc(NC(=O)c2ccc(C(F)(F)F)cc2)n1 | 40 µg/mL (≈ 133 µM) | 40.2 µM
NCc1csc(NC(=O)c2ccc(OC(F)(F)F)cc2)n1 | 40 µg/mL (≈ 126 µM) | 43.9 µM
NCc1csc(NC(=O)c2cccs2)n1 | 80 µg/mL (≈ 334 µM) | 91.7 µM
N#Cc1ccc(C(=O)Nc2nc(CN)cs2)cc1 | 20 µg/mL (≈ 77.4 µM) | 146 µM
CC(C)(C)c1cc(C(=O)Nc2nc(CN)cs2)n(Cc2ccc(F)cc2F)n1 |  | 4.7 µM
NCc1csc(NC(=O)c2ccnn2Cc2ccccc2)n1 | > 200 µg/mL | 43.7 µM
CC(C)(C)c1cc(C(=O)Nc2nc(CN)cs2)n(Cc2ccccc2Cl)n1 | 80 µg/mL (≈ 198 µM) | 1.84 µM
CC(C)(C)c1cc(C(=O)Nc2nc(CN)cs2)n(Cc2ccc(Cl)cc2)n1 | > 200 µg/mL | 12.1 µM
Cc1ccc(-c2cc(C(=O)Nc3nc(CN)cs3)n(Cc3ccccc3)n2)cc1 | 40 µg/mL (≈ 99.1 µM) | 2.03 µM
CC(C)(C)c1cc(C(=O)Nc2cccc(CN)n2)n(Cc2ccccc2)n1 | 40 µg/mL (≈ 110 µM) | 0.125 µM
CC(C)(C)c1cc(C(=O)Nc2nc(CN)cs2)n(-c2ccccc2)n1 | 160 µg/mL (≈ 450 µM) | 67.5 µM
NCc1csc(NC(=O)c2cnccn2)n1 | > 200 µg/mL | 173 µM
CC(C)(C)c1cc(C(=O)Nc2nc(CN)cs2)n(Cc2ccccc2)n1 | > 200 µg/mL | 0.0203 µM
CC(C)(C)c1ccc(Cn2nc(C(C)(C)C)cc2C(=O)Nc2nc(CN)cs2)cc1 | 10 µg/mL (≈ 23.5 µM) | 2.58 µM
C[C@H]1[C@H](OC(=O)CCC(=O)O)O[C@@H]2O[C@@]3(C)CC[C@H]4[C@H](C)CC[C@@H]1[C@@]24OO3 [ARTESUNATE] |  | 0.0052 µM
CC(C)(C)c1cc(C(=O)Nc2nc(CN)cs2)n(Cc2ccc(Br)cc2)n1 | > 200 µg/mL | 12.8 µM
Cc1cc(C(=O)Nc2nc(CN)cs2)n(Cc2ccccc2)n1 | 160 µg/mL (≈ 489 µM) | 19.8 µM
